For assay [1], the target named is PDE5 (human recombinant) (Homo sapiens, UniProt O76074). As to the kind of experiment: Inhibition of PDE5 catalytic activity (SPA). It counts as biochemical. The following applies: read-out: PDE5 mean pIC50 (converted). From the text:
Human recombinant PDE5 is disclosed in K. Loughney et al., “Isolation and characterisation of cDNAs encoding PDE5A, a human cGMP-binding, cGMP-specific 3′,5′-cyclic nucleotide phosphodiesterase”, Gene, 1998, 216, 139-147.
The ability of compounds to inhibit catalytic activity at PDE4B or 4D (human recombinant), PDE3 (from bovine aorta) PDE5 (human recombinant) or PDE 6 (from bovine retina) may be determined by Scintillation Proximity Assay (SPA) in 96-well format. Test compounds (preferably as a solution in DMSO, e.g. 2 microlitre (μl) volume) were preincubated at ambient temperature in Wallac Isoplates (code 1450-514) with PDE enzyme in 50 mM Tris-HCl buffer pH 7.5, 8.3 mM MgCl2, 1.7 mM EGTA, 0.05% (w/v) bovine serum albumin for 10-30 minutes. The enzyme concentration was adjusted so that control rates are linear over the asay incubation period. […] Bound radioactive product was measured using a WALLAC TRILUX 1450 MicroBeta scintillation counter. […] Curves were analysed using ActivityBase and XLfit (ID Businesss Solutions Limited, 2 Ocean Court, Surrey Research Park, Guildford, Surrey GU2 7QB, United Kindgom). Results were expressed as pIC50 values.

For assay [2], the target named is T1, PDE4B (human recombinant) (Homo sapiens, UniProt Q07343).
T1 construct: made in house; host or cells: Saccharomyces cerevisiae strain GL62 (as described in the cited WO 94/20079)
T1 sequence (Q07343 1-564 isoform Q07343-2): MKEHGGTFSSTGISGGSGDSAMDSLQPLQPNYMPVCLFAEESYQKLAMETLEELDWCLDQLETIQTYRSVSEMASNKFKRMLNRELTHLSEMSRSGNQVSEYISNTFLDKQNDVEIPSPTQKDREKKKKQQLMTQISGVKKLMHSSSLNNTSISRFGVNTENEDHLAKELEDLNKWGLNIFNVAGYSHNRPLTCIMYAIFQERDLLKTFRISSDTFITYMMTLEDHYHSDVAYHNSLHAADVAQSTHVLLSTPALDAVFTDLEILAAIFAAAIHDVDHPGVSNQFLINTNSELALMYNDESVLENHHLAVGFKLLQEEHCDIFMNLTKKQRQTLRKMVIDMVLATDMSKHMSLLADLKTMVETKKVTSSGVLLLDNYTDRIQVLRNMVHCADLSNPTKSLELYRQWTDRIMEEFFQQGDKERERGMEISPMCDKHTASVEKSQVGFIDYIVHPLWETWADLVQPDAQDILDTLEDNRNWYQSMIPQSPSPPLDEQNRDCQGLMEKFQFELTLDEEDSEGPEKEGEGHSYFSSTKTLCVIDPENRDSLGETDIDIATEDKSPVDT
As to the kind of experiment: Inhibition of PDE4B catalytic activity (SPA or IMAP FP assay). It counts as biochemical. The following applies: SPA or FP assay not specified, read-out: PDE4B mean pIC50 (converted). From the text:
Human recombinant PDE4B, in particular the 2B splice variant thereof (HSPDE4B2B), is disclosed in WO 94/20079 and also in M. M. McLaughlin et al., “A low Km, rolipram-sensitive, cAMP-specific phosphodiesterase from human brain: cloning and expression of cDNA, biochemical characterisation of recombinant protein, and tissue distribution of mRNA”, J. Biol. Chem., 1993, 268, 6470-6476. […]
The ability of compounds to inhibit catalytic activity at PDE4B or 4D (human recombinant), PDE3 (from bovine aorta) PDE5 (human recombinant) or PDE 6 (from bovine retina) may be determined by Scintillation Proximity Assay (SPA) in 96-well format. […] Bound radioactive product was measured using a WALLAC TRILUX 1450 MicroBeta scintillation counter. […] Curves were analysed using ActivityBase and XLfit (ID Businesss Solutions Limited, 2 Ocean Court, Surrey Research Park, Guildford, Surrey GU2 7QB, United Kindgom). Results were expressed as pIC50 values.
The ability of compounds to inhibit catalytic activity at PDE4B (human recombinant) and PDE4D (human recombinant) was determined by IMAP Fluorescence Polarisation (FP) assay (Molecular Devices Ltd code: R8062) in 384-well format. […]
Fluorescein adenosine 3′,5′-cyclic phosphate (Molecular Devices Ltd code: R7091) was added to give ˜40 nM final concentration. […] Curves were analysed using ActivityBase and XLfit (ID Businesss Solutions Limited). […]

As for `COc1cccc(Nc2c(C(N)=O)cnc3ccc(S(=O)(=O)N(C)C)cc23)c1` [Example 2, 6-[(dimethylamino)sulfonyl]4-{[3-(methyloxy)phenyl]amino}-3-quinolinecarboxamide], the values for the IC50 in assay [1] and in assay [2] were 15.8 µM and 0.001 µM, respectively.
On to `NC(=O)c1cnc2ccc(S(=O)(=O)N3CCOCC3)cc2c1Nc1cccc(Cl)c1` [Example 4], for which the IC50 in assay [1] was 12.6 µM; in assay [2], 0.00251 µM.

The values are drawn from patent US20080096884A1, “4-Aminoquinoline-3-Carboxamide Derivatives as Pde4 Inhibitors” (priority 2003, published 2008).
